Experiment: Fasting salivary nitrate and nitrite after oral nitrate (Quantofix test strips)
Design: species or system human
Conditions: in vivo
Procedure: Measuring the fasting value of salivary nitrate and nitrite does give a reflection of the plasma value of nitrate and nitrite. The patient took one capsule chitosan nitrate, containing 120 mg NO3− anion, at 11:00 pm. […] An equivalent amount of 120 mg NO3− was taken at 11:00 pm. […] Oligo chitosan is absorbed before reaching the colon and NO3− will then also be absorbed. Quantofix test strips nitrate and nitrite from Macherey-Nagel company, Germany, were used for measurement of NO3− and NO2−. These test strips allow semiquantitative measurement. Reading of the test strips was performed with a Quantofix Relax reader. Other tests were done based on the ingestion of the daily dose in the morning and by measuring the salivary nitrate and salivary nitrite 24 hours later. Two capsules of chitosan nitrate contained an equivalent amount of 240 mg NO3−. Ten measurements were done for both chitosan nitrate and KNO3 salt.

chitosan nitrate
nitrite values in saliva relative to KNO3: three times higher

— US20220143072A1, “Chitosan nitrate for use as a nitric oxide donor (NO donor)” (NO-ceuticals B.V., priority 2019, published 2022)
